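Compound exposure: 48 hours, 5 concentrations, 96-well plates. GI50 is the concentration that inhibits growth by half.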 The source made the active and inactive calls. No stated cut-off is given here; in the data, active = GI50 up to about 1.1 µM and inactive = higher.
Experiments:
Experiment in all cases: DTP human tumour cell line panel, 48 h
LOX IMVI = system: LOX IMVI
UACC-62 = system: UACC-62
SW-620 = system: SW-620
HCT-116 = system: HCT-116
HOP-62 = system: HOP-62
RXF 393 = system: RXF 393
OVCAR-3 = system: OVCAR-3
SK-MEL-2 = system: SK-MEL-2
SNB-19 = system: SNB-19
PC-3 = system: PC-3
MOLT-4 = system: MOLT-4
MDA-MB-435 = system: MDA-MB-435
SK-OV-3 = system: SK-OV-3
NCI-H226 = system: NCI-H226
A498 = system: A498
HOP-92 = system: HOP-92
Malme-3M = system: Malme-3M
MCF7 = system: MCF7
786-0 = system: 786-0
HCC 2998 = system: HCC 2998
IGROV-1 = system: IGROV-1
TK-10 = system: TK-10
CAKI-1 = system: CAKI-1
SK-MEL-5 = system: SK-MEL-5
T47D = system: T47D
ACHN = system: ACHN
EKVX = system: EKVX
U-251 = system: U-251
HCT-15 = system: HCT-15
SNB-75 = system: SNB-75
SN12C = system: SN12C
UACC-257 = system: UACC-257
SF-539 = system: SF-539
M14 = system: M14
K562 = system: K562
COLO 205 = system: COLO 205
NCI-H23 = system: NCI-H23
KM12 = system: KM12
NCI/ADR-RES = system: NCI/ADR-RES
RPMI-8226 = system: RPMI-8226
CCRF-CEM = system: CCRF-CEM
DU-145 = system: DU-145
MDA-N = system: MDA-N
SK-MEL-28 = system: SK-MEL-28
NCI-H522 = system: NCI-H522
OVCAR-8 = system: OVCAR-8
OVCAR-4 = system: OVCAR-4
SF-295 = system: SF-295
UO-31 = system: UO-31
A549 = system: A549
MDA-MB-231 = system: MDA-MB-231

`COc1ccc(-c2c(-c3ccc(OC)cc3)n3c(=O)n(C)c(=O)n23)cc1` was tested, and the GI50 (LOX IMVI) was > 100 µM (inactive), the GI50 (UACC-62) was 30.5 µM (inactive) and the GI50 (SW-620) was > 100 µM (inactive). The GI50 (HCT-116) was > 100 µM (inactive), the GI50 (HOP-62) was 22.7 µM (inactive) and the GI50 (RXF 393) was 76.4 µM (inactive). For the same molecule, the GI50 (OVCAR-3) was 18.2 µM (inactive), the GI50 (SK-MEL-2) was 43.2 µM (inactive) and the GI50 (SNB-19) was 17.1 µM (inactive). The GI50 (PC-3) was 27.4 µM (inactive), the GI50 (MOLT-4) was > 100 µM (inactive) and the GI50 (MDA-MB-435) was > 100 µM (inactive). For the same molecule, the GI50 (SK-OV-3) was 50.5 µM (inactive), the GI50 (NCI-H226) was 60.4 µM (inactive) and the GI50 (A498) was 19.4 µM (inactive). The GI50 (HOP-92) was 18.8 µM (inactive), the GI50 (Malme-3M) was 91.6 µM (inactive) and the GI50 (MCF7) was > 100 µM (inactive). The GI50 (786-0) was > 100 µM (inactive), the GI50 (HCC 2998) was > 100 µM (inactive) and the GI50 (IGROV-1) was > 100 µM (inactive). For the same molecule, the GI50 (TK-10) was 33.3 µM (inactive), the GI50 (CAKI-1) was > 100 µM (inactive) and the GI50 (SK-MEL-5) was > 100 µM (inactive). For the same molecule, the GI50 (T47D) was 20.6 µM (inactive), the GI50 (ACHN) was 67.1 µM (inactive) and the GI50 (EKVX) was 34.9 µM (inactive). For the same molecule, the GI50 (U-251) was > 100 µM (inactive), the GI50 (HCT-15) was 81.5 µM and the GI50 (SNB-75) was > 100 µM (inactive). For the same molecule, the GI50 (SN12C) was 34 µM (inactive), the GI50 (UACC-257) was 50.5 µM (inactive) and the GI50 (SF-539) was 24.6 µM (inactive). The GI50 (M14) was > 100 µM (inactive), the GI50 (K562) was > 100 µM (inactive) and the GI50 (COLO 205) was > 100 µM (inactive). For the same molecule, the GI50 (NCI-H23) was > 100 µM (inactive), the GI50 (KM12) was > 100 µM (inactive) and the GI50 (NCI/ADR-RES) was 18.4 µM (inactive). The GI50 (RPMI-8226) was 76.4 µM (inactive), the GI50 (CCRF-CEM) was 59.4 µM (inactive) and the GI50 (DU-145) was 15.6 µM (inactive). The GI50 (MDA-N) was > 10 µM (inactive), the GI50 (SK-MEL-28) was > 100 µM (inactive) and the GI50 (NCI-H522) was > 100 µM (inactive). For the same molecule, the GI50 (OVCAR-8) was 17.6 µM (inactive), the GI50 (OVCAR-4) was 23.3 µM (inactive) and the GI50 (SF-295) was > 100 µM (inactive). The GI50 (UO-31) was 32.3 µM (inactive), the GI50 (A549) was 53.3 µM (inactive) and the GI50 (MDA-MB-231) was > 100 µM (inactive).

From ChEMBL document CHEMBL1201862, “PubChem BioAssay data set” (2004)
